According to patent publication US9113629B2, “4-amino-6-(4-substituted-phenyl)-picolinates and 6-amino-2-(4-substituted-phenyl)-pyrimidine-4-carboxylates and their use as herbicides” (DOW AGROSCIENCES LLC, priority 2013, dated 2015):

Experiments:
Type in all cases: in vivo
[1] = system: AVEFA: wild oats (Avena fatua); experiment: Pre-emergent Test I herbicidal activity; conditions: pre-emergence, 336 h, read-out: Visual Growth Reduction (%) 14 Days After Application, AVEFA
Procedure, shortened: (§1)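 Seeds sown in sandy loam and sub-irrigated 16 h before soil-surface application of compound in acetone/isopropanol/DMSO/crop oil/Triton X-155 aqueous spray solution, serially diluted for lower rates, then water-incorporated. Greenhouse at ~15 h photoperiod, 23-29° C day, 22-28° C night. Injury scored 0 (none) to 100 (death/no emergence) versus controls at 14 days.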

[2] = system: ECHCG: barnyardgrass (Echinochloa crus-galli); experiment: Pre-emergent Test I herbicidal activity; conditions: pre-emergence, 336 h, read-out: Visual Growth Reduction (%) 14 Days After Application, ECHCG
Procedure, shortened: as §1

[3] = system: SETFA: giant foxtail (Setaria faberi); experiment: Pre-emergent Test I herbicidal activity; conditions: pre-emergence, 336 h, read-out: Visual Growth Reduction (%) 14 Days After Application, SETFA
Procedure, shortened: as §1

[4] = system: HELAN: sunflower (Helianthus annuus); experiment: Pre-emergent Test I herbicidal activity; conditions: pre-emergence, 336 h, read-out: Visual Growth Reduction (%) 14 Days After Application, HELAN
Procedure, shortened: as §1

[5] = system: AMARE: redroot pigwseed (Amaranthus retroflexus); experiment: Pre-emergent Test I herbicidal activity; conditions: pre-emergence, 336 h, read-out: Visual Growth Reduction (%) 14 Days After Application, AMARE
Procedure, shortened: as §1

[6] = system: IPOHE: ivyleaf morningglory (Ipomoea hederecea); experiment: Pre-emergent Test I herbicidal activity; conditions: pre-emergence, 336 h, read-out: Visual Growth Reduction (%) 14 Days After Application, IPOHE
Procedure, shortened: as §1

[7] = system: ALOMY: black-grass (Alopecurus myosuroides); experiment: Post-emergent Test III, herbicidal activity in wheat and barley; conditions: for pest or weed control at 35 g/ha / pest or weed control at 70 g/ha / pest or weed control at 140 g/ha: Alopecurus myosuroides, post-emergence, 504 h, read-out: Visual Growth Reduction (%) 21 Days After Application ALOMY; for pest or weed control at 35 g/ha: 35 g ai/ha; for pest or weed control at 70 g/ha: 70 g ai/ha; for pest or weed control at 140 g/ha: 140 g ai/ha; for GR50 ALOMY / GR80 ALOMY: probit analysis, 21 days after application; for GR50 ALOMY: dose for growth reduction of 50 percent; for GR80 ALOMY: dose for growth reduction of 80 percent
Procedure, shortened: (§2)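 Plants at the second to third true-leaf stage, grown in a greenhouse at about 18/17 °C with a 14 h photoperiod, were sprayed post-emergence at 187 L/ha with the high rate and ½× to 1/16× serial dilutions in an acetone/DMSO/crop-oil/surfactant carrier. Injury was rated visually at 21 d on a 0–100% scale, and GR20–GR90 were derived by probit analysis.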

LAMSS = experiment: as above; conditions: for pest or weed control at 35 g/ha / pest or weed control at 70 g/ha / pest or weed control at 140 g/ha: post-emergence, 504 h, read-out: Visual Growth Reduction (%) 21 Days After Application LAMSS; for pest or weed control at 35 g/ha: 35 g ai/ha; for pest or weed control at 70 g/ha: 70 g ai/ha; for pest or weed control at 140 g/ha: 140 g ai/ha; for GR50 LAMSS / GR80 LAMSS: probit analysis, 21 days after application; for GR50 LAMSS: dose for growth reduction of 50 percent; for GR80 LAMSS: dose for growth reduction of 80 percent
Procedure, shortened: as §2

[8] = system: VERPE: bird's-eye speedwell (veronica persica); experiment: as above; conditions: for pest or weed control at 35 g/ha / pest or weed control at 70 g/ha / pest or weed control at 140 g/ha: Veronica persica, post-emergence, 504 h, read-out: Visual Growth Reduction (%) 21 Days After Application VERPE; for pest or weed control at 35 g/ha: 35 g ai/ha; for pest or weed control at 70 g/ha: 70 g ai/ha; for pest or weed control at 140 g/ha: 140 g ai/ha; for GR50 VERPE / GR80 VERPE: probit analysis, 21 days after application; for GR50 VERPE: dose for growth reduction of 50 percent; for GR80 VERPE: dose for growth reduction of 80 percent
Procedure, shortened: as §2

| SMILES | pest or weed control at 35 g/ha [7] | pest or weed control at 70 g/ha [7] | pest or weed control at 140 g/ha [7] | GR50 ALOMY [7] | GR80 ALOMY [7] | pest or weed control at 35 g/ha (LAMSS) | pest or weed control at 70 g/ha (LAMSS) | pest or weed control at 140 g/ha (LAMSS) | GR50 LAMSS (LAMSS) | GR80 LAMSS (LAMSS) | pest or weed control at 35 g/ha [8] | pest or weed control at 70 g/ha [8] | pest or weed control at 140 g/ha [8] | GR50 VERPE [8] | GR80 VERPE [8] | other results |
| --- | --- | --- | --- | --- | --- | --- | --- | --- | --- | --- | --- | --- | --- | --- | --- | --- |
| Nc1c(F)c(-c2ccc(I)cc2)nc(C(=O)O)c1Cl [Compound 45, 4-amino-3-chloro-5-fluoro-6-(4-iodophenyl)picolinic acid] | 75 to 84% | 85 to 94% | 95 to 100% | 9 g ai/ha | 27 g ai/ha | 85 to 94% | 95 to 100% | 95 to 100% | 1 g ai/ha | 6 g ai/ha | 75 to 84% | 85 to 94% | 85 to 94% | 7 g ai/ha | 30 g ai/ha | pest or weed control at 3960 g/ha ([1]; 3.96 kg ai/ha): 95 to 100%; pest or weed control at 3960 g/ha ([2]; 3.96 kg ai/ha): 95 to 100%; pest or weed control at 3960 g/ha ([3]; 3.96 kg ai/ha): 95 to 100%; pest or weed control at 3960 g/ha ([4]; 3.96 kg ai/ha): 95 to 100%; pest or weed control at 3960 g/ha ([5]; 3.96 kg ai/ha): 95 to 100%; pest or weed control at 3960 g/ha ([6]; 3.96 kg ai/ha): 95 to 100% |
| Nc1c(F)c(-c2ccc(OC(F)F)cc2)nc(C(=O)O)c1Cl [Compound 143] | 0 to 29% | 60 to 74% | 60 to 74% | 71 g ai/ha | >140 g ai/ha | 85 to 94% | 85 to 94% | 85 to 94% | 1 g ai/ha | 1 g ai/ha | 30 to 44% | 45 to 59% | 45 to 59% | 97 g ai/ha | >140 g ai/ha | pest or weed control at 4000 g/ha ([1]; 4 kg ai/ha): 60 to 74%; pest or weed control at 4000 g/ha ([2]; 4 kg ai/ha): 85 to 94%; pest or weed control at 4000 g/ha ([3]; 4 kg ai/ha): 95 to 100%; pest or weed control at 4000 g/ha ([4]; 4 kg ai/ha): 95 to 100%; pest or weed control at 4000 g/ha ([5]; 4 kg ai/ha): 85 to 94%; pest or weed control at 4000 g/ha ([6]; 4 kg ai/ha): 85 to 94% |
| COC(=O)c1nc(-c2ccc(Br)c(F)c2F)cc(N)c1Cl [Compound 114, methyl 4-amino-6-(4-bromo-2,3-difluorophenyl)-3-chloropicolinate] | 0 to 29% | 0 to 29% | 0 to 29% | >140 g ai/ha | >140 g ai/ha | 85 to 94% | 85 to 94% | 95 to 100% | 1 g ai/ha | 4 g ai/ha | 30 to 44% | 30 to 44% | 30 to 44% | >140 g ai/ha | >140 g ai/ha | pest or weed control at 3920 g/ha ([1]; 3.92 kg ai/ha): 95 to 100%; pest or weed control at 3920 g/ha ([2]; 3.92 kg ai/ha): 75 to 84%; pest or weed control at 3920 g/ha ([3]; 3.92 kg ai/ha): 85 to 94%; pest or weed control at 3920 g/ha ([4]; 3.92 kg ai/ha): 95 to 100%; pest or weed control at 3920 g/ha ([5]; 3.92 kg ai/ha): 95 to 100%; pest or weed control at 3920 g/ha ([6]; 3.92 kg ai/ha): 95 to 100% |
